According to ChEMBL document CHEMBL5579837, “Dual 5-HT6/SERT ligands for mitigating neuropsychiatric symptoms of dementia exerting neuroprotection against amyloid-β toxicity, memory preservation, and antidepressant-like properties” (Eur J Med Chem, 2024):
Values after ≈ are worked out from the molar mass of the structure shown.

Experiments:
[1] = target: Voltage-gated inwardly rectifying potassium channel KCNH2 (Homo sapiens, UniProt Q12809); assay: Inhibition of hERG expressed in CHO cells measured for 30 mins by electrophysiological automated patch clamp assay; type: toxicity, cell-based
Voltage-gated inwardly rectifying potassium channel KCNH2, sequence (Q12809 whole entry): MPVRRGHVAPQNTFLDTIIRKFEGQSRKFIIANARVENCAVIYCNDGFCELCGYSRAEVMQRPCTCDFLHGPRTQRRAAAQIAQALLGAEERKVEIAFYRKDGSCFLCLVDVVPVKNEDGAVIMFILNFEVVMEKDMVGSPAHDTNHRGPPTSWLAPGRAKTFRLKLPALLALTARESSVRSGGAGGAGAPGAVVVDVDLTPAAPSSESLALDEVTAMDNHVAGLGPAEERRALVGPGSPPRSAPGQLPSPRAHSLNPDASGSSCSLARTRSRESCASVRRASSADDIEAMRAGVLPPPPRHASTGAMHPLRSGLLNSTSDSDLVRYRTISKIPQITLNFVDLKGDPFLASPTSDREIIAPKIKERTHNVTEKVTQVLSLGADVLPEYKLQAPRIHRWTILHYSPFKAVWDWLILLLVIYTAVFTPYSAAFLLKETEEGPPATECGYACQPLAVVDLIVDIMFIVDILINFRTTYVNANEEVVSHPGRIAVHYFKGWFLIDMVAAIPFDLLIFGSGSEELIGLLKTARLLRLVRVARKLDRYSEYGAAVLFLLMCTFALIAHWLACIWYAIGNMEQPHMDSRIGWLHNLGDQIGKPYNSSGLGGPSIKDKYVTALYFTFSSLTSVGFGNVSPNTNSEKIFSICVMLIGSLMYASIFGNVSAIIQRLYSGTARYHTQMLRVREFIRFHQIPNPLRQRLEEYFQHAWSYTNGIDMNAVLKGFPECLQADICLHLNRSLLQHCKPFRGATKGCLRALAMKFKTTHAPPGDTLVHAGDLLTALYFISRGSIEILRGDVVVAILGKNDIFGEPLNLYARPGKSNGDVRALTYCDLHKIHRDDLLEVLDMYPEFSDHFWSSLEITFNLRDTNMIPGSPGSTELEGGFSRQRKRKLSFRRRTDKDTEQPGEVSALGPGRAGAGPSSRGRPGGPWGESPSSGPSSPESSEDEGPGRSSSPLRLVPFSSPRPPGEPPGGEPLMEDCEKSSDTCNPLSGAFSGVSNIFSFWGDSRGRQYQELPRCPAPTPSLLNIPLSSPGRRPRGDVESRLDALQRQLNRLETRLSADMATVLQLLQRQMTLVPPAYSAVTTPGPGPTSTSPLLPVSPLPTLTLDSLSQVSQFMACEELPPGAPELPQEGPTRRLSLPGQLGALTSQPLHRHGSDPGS

[2] = target: 5-hydroxytryptamine receptor 6 (Homo sapiens, UniProt P50406)
5-hydroxytryptamine receptor 6, sequence (P50406 whole entry): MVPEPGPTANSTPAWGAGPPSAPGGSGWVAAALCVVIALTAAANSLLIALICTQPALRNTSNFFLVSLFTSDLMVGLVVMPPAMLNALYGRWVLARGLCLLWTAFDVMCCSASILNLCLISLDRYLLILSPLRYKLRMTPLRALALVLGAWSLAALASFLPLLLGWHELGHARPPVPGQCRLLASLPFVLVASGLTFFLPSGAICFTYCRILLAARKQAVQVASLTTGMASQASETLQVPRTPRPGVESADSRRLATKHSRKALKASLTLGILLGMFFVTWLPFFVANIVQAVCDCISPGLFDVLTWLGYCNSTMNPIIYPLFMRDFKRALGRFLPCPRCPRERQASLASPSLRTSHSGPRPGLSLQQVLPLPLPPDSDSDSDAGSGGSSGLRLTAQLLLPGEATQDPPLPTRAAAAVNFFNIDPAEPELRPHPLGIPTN
Description: Displacement of [3H]-LSD from human 5-HT6 receptor extracted from CHO-K1 cell membrane assessed as inhibition constant incubated for 60 mins by microbeta2 scintillation counter analysis

in vitro [3] = conditions: human, HepG2 cells
Description: Hepatotoxicity in human HepG2 cells incubated for 24 hrs by PrestoBlue reagent based assay

in vitro [4] = conditions: mouse, HT-22 cells
Description: Neurotoxicity in mouse HT-22 cells incubated for 24 hrs by PrestoBlue reagent based assay

in vitro [5] = conditions: rat, liver microsomes
in vitro [6] = conditions: PAMPA
Description: Permeability of compound by PAMPA based LC-MS analysis

physchem = conditions: PBS, pH 7.4
in vitro [7] = conditions: rat, liver microsomes; remark: listed apart in the source

Compound	IC50 [1]	other results
N#Cc1ccc2[nH]cc(CCN3CCN(c4cccc5c4[nH]c(=O)n5Cc4ccccc4)CC3)c2c1	1700 nM	
N#Cc1ccc2[nH]cc(CCCCN3CCN(c4cccc5c4ccn5S(=O)(=O)c4ccccc4)CC3)c2c1	1600 nM	
N#Cc1ccc2[nH]cc(CCCCN3CCN(c4cccc5c4[nH]c(=O)n5Cc4ccccc4)CC3)c2c1	1100 nM	
O=S(=O)(c1ccccc1)c1c[nH]c2c(C3CCN(CCCc4c[nH]c5ccc(Cl)cc45)CC3)cccc12	9500 nM	
Cc1c(OCc2ccccc2)cccc1N1CCN(CCCc2c[nH]c3ccc(C#N)cc23)CC1	1100 nM	
O=S(=O)(c1ccccc1)c1c[nH]c2c(C3CCN(CCc4c[nH]c5ccc(Cl)cc45)CC3)cccc12	7000 nM	
O=c1[nH]c2c(N3CCN(CCc4c[nH]c5ccc(F)cc45)CC3)cccc2n1Cc1ccccc1	3900 nM	Ki [2]: 116 nM
O=c1[nH]c2c(N3CCN(CCCc4c[nH]c5ccc(Cl)cc45)CC3)cccc2n1Cc1ccccc1	2500 nM	
N#Cc1ccc2[nH]cc(CCN3CCN(c4cccc5c4ccn5S(=O)(=O)c4ccccc4)CC3)c2c1	8900 nM	
Cc1c(OCc2ccccc2)cccc1N1CCN(CCc2c[nH]c3ccc(Cl)cc23)CC1	6600 nM	Ki [2]: 142 nM
Cc1c(OCc2ccccc2)cccc1N1CCN(CCCCc2c[nH]c3ccc(C#N)cc23)CC1	4900 nM	
N#Cc1ccc2[nH]cc(CCCN3CCN(c4cccc5c4ccn5S(=O)(=O)c4ccccc4)CC3)c2c1	1700 nM	
N#Cc1ccc2[nH]cc(CCCN3CCN(c4cccc5c4[nH]c(=O)n5Cc4ccccc4)CC3)c2c1	1200 nM	
O=c1[nH]c2c(N3CCN(CCc4c[nH]c5ccc(Cl)cc45)CC3)cccc2n1Cc1ccccc1	4000 nM	IC50 at 24 h (in vitro [3]): 23000 nM; IC50 at 24 h (in vitro [4]): 47000 nM; Ki [2]: 8 nM; half-life (in vitro [5]): > 1 h; Papp (in vitro [6]): 2.75 ×10⁻⁶ cm/s; solubility at 24 h (physchem): 23.4 µM (≈ 11.4 µg/mL); microsomal CLint (in vitro [7]): < 116 µL/min/mg
Cc1c(OCc2ccccc2)cccc1N1CCN(CCc2c[nH]c3ccc(F)cc23)CC1	2800 nM	
Cc1c(OCc2ccccc2)cccc1N1CCN(CCCc2c[nH]c3ccc(Cl)cc23)CC1	13600 nM	
N#Cc1ccc2[nH]cc(CCCN3CCC(c4cccc5c(S(=O)(=O)c6ccccc6)c[nH]c45)CC3)c2c1	28100 nM	
N#Cc1ccc2[nH]cc(CCN3CCC(c4cccc5c(S(=O)(=O)c6ccccc6)c[nH]c45)CC3)c2c1	1100 nM	
Cc1c(OCc2ccccc2)cccc1N1CCN(CCCc2c[nH]c3ccc(F)cc23)CC1	3300 nM	
O=S(=O)(c1ccccc1)n1ccc2c(N3CCN(CCc4c[nH]c5ccc(Cl)cc45)CC3)cccc21	21300 nM	Ki [2]: 19 nM
O=S(=O)(c1ccccc1)c1c[nH]c2c(C3CCN(CCCc4c[nH]c5ccc(F)cc45)CC3)cccc12	5000 nM	
Cc1c(OCc2ccccc2)cccc1N1CCN(CCc2c[nH]c3ccc(C#N)cc23)CC1	3600 nM	
O=S(=O)(c1ccccc1)n1ccc2c(N3CCN(CCCc4c[nH]c5ccc(F)cc45)CC3)cccc21	2900 nM	
O=c1[nH]c2c(N3CCN(CCCc4c[nH]c5ccc(F)cc45)CC3)cccc2n1Cc1ccccc1	2500 nM	
N#Cc1ccc2[nH]cc(CCCCN3CCC(c4cccc5c(S(=O)(=O)c6ccccc6)c[nH]c45)CC3)c2c1	4600 nM	
O=S(=O)(c1ccccc1)n1ccc2c(N3CCN(CCCc4c[nH]c5ccc(Cl)cc45)CC3)cccc21	700 nM	
O=S(=O)(c1ccccc1)c1c[nH]c2c(C3CCN(CCc4c[nH]c5ccc(F)cc45)CC3)cccc12	29300 nM	Ki [2]: 25 nM
O=S(=O)(c1ccccc1)n1ccc2c(N3CCN(CCc4c[nH]c5ccc(F)cc45)CC3)cccc21	1300 nM	
